Data on 12 compounds can be found in PubChem BioAssay (NCI).

Some test systems named below: SK-MEL-28 melanoma; IGROV1 ovarian; UACC-62 melanoma; DU-145 prostate; OVCAR-4 ovarian; MDA-MB-231 breast; SF-268 CNS; NCI-H23 lung; HCC-2998 colon; CCRF-CEM leukemia.
Assay in all cases: DTP human tumour cell line panel, 48 h

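Five compound concentrations were applied to cells in 96-well plates for 48 hours; endpoints were derived by simple linear interpolation of the resulting dose-response curve. GI50 = concentration required for 50% inhibition of growth. TGI: concentration producing complete growth inhibition.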 Where only a bound is given, the exact number is not on record here.

Regarding `O=[n+]1c(CBr)c(CBr)n([O-])c2ccccc21`, the GI50 was 14.6 µM in the experiment on SK-MEL-28 melanoma; 10.5 µM in the experiment on IGROV1 ovarian; 14.1 µM in the experiment on UACC-62 melanoma; 5.8 µM in the experiment with DU-145 prostate; 6.81 µM in the experiment on OVCAR-4 ovarian; 11.9 µM in the experiment with MDA-MB-231 breast. The GI50 in the experiment with SF-268 CNS was 15.9 µM; in the experiment on NCI-H23 lung it was 14.8 µM; with HCC-2998 colon it was 16.9 µM; in the experiment with CCRF-CEM leukemia, 2.79 µM. The TGI is 28.1 µM in the experiment on SK-MEL-28 melanoma; 31 µM with IGROV1 ovarian; 27.4 µM with UACC-62 melanoma; 18.4 µM in the experiment with DU-145 prostate; 20.4 µM in the experiment on OVCAR-4 ovarian; 24.5 µM in the experiment with MDA-MB-231 breast. In addition, the TGI with SF-268 CNS came to 33.6 µM; with NCI-H23 lung, 29.4 µM; in the experiment on HCC-2998 colon, 31 µM; in the experiment on CCRF-CEM leukemia it was 14.2 µM.

Take `Cn1cc(C2=C(c3ccc(OC[C@@H](O)CO)cc3)C(=O)NC2=O)c2ccccc21`: the GI50 in the experiment with SK-MEL-28 melanoma, in the experiment with IGROV1 ovarian, in the experiment on UACC-62 melanoma, in the experiment on DU-145 prostate, in the experiment with OVCAR-4 ovarian and with MDA-MB-231 breast was above 25 µM each time. Further, the GI50 in the experiment on SF-268 CNS, in the experiment on NCI-H23 lung, with HCC-2998 colon and with CCRF-CEM leukemia was above 25 µM throughout. Also, the TGI in the experiment on SK-MEL-28 melanoma, with IGROV1 ovarian, in the experiment with UACC-62 melanoma, with DU-145 prostate, in the experiment on OVCAR-4 ovarian and in the experiment on MDA-MB-231 breast was above 25 µM throughout. Besides, the total growth inhibition concentration (TGI) in the experiment with SF-268 CNS, with NCI-H23 lung, in the experiment on HCC-2998 colon and with CCRF-CEM leukemia was above 25 µM in each case.

On to `COc1cc2c(c(OC)c1OC)-c1ccc(NCc3ccccc3)c(=O)cc1[C@@H](NC(C)=O)CC2`, for which the GI50 was 0.499 µM with SK-MEL-28 melanoma; 0.595 µM in the experiment with IGROV1 ovarian; 0.526 µM in the experiment with UACC-62 melanoma; 0.374 µM with DU-145 prostate; 0.989 µM with OVCAR-4 ovarian; 0.461 µM in the experiment with MDA-MB-231 breast. In addition, the GI50 with SF-268 CNS is 0.788 µM; in the experiment with NCI-H23 lung, 0.628 µM; in the experiment on HCC-2998 colon, 0.529 µM; with CCRF-CEM leukemia, 0.34 µM. Besides, the total growth inhibition concentration (TGI) is 31.5 µM with SK-MEL-28 melanoma; 16.8 µM with IGROV1 ovarian; 22.4 µM with UACC-62 melanoma; 7.91 µM with DU-145 prostate; 45.9 µM with OVCAR-4 ovarian; 11.7 µM in the experiment on MDA-MB-231 breast. The total growth inhibition concentration (TGI) with SF-268 CNS is above 73.5 µM; in the experiment with NCI-H23 lung, 54.9 µM; with HCC-2998 colon, 13.2 µM; with CCRF-CEM leukemia, above 100 µM.

Turning to `Cn1c(-c2nonc2N)nc2cnccc21`, the GI50 in the experiment with SK-MEL-28 melanoma, with IGROV1 ovarian, with UACC-62 melanoma, in the experiment on DU-145 prostate, in the experiment on OVCAR-4 ovarian and in the experiment with MDA-MB-231 breast was above 25 µM each time. Besides, the GI50 in the experiment with SF-268 CNS, in the experiment with NCI-H23 lung, in the experiment with HCC-2998 colon and in the experiment on CCRF-CEM leukemia was above 25 µM throughout. The concentration for total growth inhibition (TGI) in the experiment with SK-MEL-28 melanoma, in the experiment on IGROV1 ovarian, in the experiment on UACC-62 melanoma, with DU-145 prostate, in the experiment with OVCAR-4 ovarian and in the experiment on MDA-MB-231 breast was above 25 µM in each case. The total growth inhibition concentration (TGI) in the experiment on SF-268 CNS, in the experiment with NCI-H23 lung, in the experiment on HCC-2998 colon and in the experiment with CCRF-CEM leukemia was above 25 µM throughout.

Consider `CN(C)c1ccc(/C=C2\C[N+](C)(C)C/C(=C\c3ccc(N(C)C)cc3)C2=O)cc1`, for which the TGI is 37.4 µM with SK-MEL-28 melanoma; 18 µM in the experiment on IGROV1 ovarian; 30.6 µM in the experiment with UACC-62 melanoma; above 100 µM with DU-145 prostate; above 100 µM in the experiment with OVCAR-4 ovarian; 36.7 µM in the experiment with MDA-MB-231 breast. Further, the concentration for total growth inhibition (TGI) in the experiment on SF-268 CNS is 66.2 µM; with NCI-H23 lung it was 54.4 µM; with HCC-2998 colon, 22.1 µM; with CCRF-CEM leukemia, 38.9 µM.

In the case of `CC[n+]1ccc2c(c1)C(=O)c1nccc3c1c-2nc1ccccc13`, the GI50 with SK-MEL-28 melanoma was 1.84 µM; in the experiment on IGROV1 ovarian it was 1.76 µM; with UACC-62 melanoma it was 0.763 µM; in the experiment on DU-145 prostate it was 1.03 µM; in the experiment with OVCAR-4 ovarian it was 0.941 µM; with MDA-MB-231 breast, 2.17 µM. The 50% growth inhibitory concentration (GI50) in the experiment on SF-268 CNS is 0.34 µM; with NCI-H23 lung, 0.28 µM; in the experiment with HCC-2998 colon, 1.05 µM; in the experiment with CCRF-CEM leukemia, 1.39 µM. Also, the TGI was 7.64 µM with SK-MEL-28 melanoma; 10.9 µM with IGROV1 ovarian; 2.52 µM in the experiment on UACC-62 melanoma; 4.31 µM in the experiment with DU-145 prostate; 4.1 µM in the experiment with OVCAR-4 ovarian; 14 µM in the experiment on MDA-MB-231 breast. For the same compound, the concentration for total growth inhibition (TGI) in the experiment on SF-268 CNS is 3.63 µM; with NCI-H23 lung it was 2.64 µM; with HCC-2998 colon, 4.97 µM; with CCRF-CEM leukemia, 14.4 µM.

For `OC(c1cccc(C(F)(F)F)c1)c1cnccc1NC1CCCCCC1` (stereo not given), the GI50 was 1.73 µM in the experiment on SK-MEL-28 melanoma; 1.7 µM in the experiment on IGROV1 ovarian; 1.5 µM in the experiment on UACC-62 melanoma; 2.77 µM in the experiment with DU-145 prostate; 1.83 µM in the experiment on OVCAR-4 ovarian; 1.64 µM in the experiment on MDA-MB-231 breast. The GI50 is 3.29 µM in the experiment with SF-268 CNS, 1.85 µM with NCI-H23 lung, 1.74 µM in the experiment with HCC-2998 colon and 2.56 µM in the experiment with CCRF-CEM leukemia. Moreover, the TGI in the experiment with SK-MEL-28 melanoma was 3.24 µM; with IGROV1 ovarian, 3.43 µM; in the experiment on UACC-62 melanoma, 3.06 µM; in the experiment on DU-145 prostate, 7.53 µM; in the experiment with OVCAR-4 ovarian, 6.33 µM; in the experiment with MDA-MB-231 breast, 3.22 µM. Besides, the TGI in the experiment with SF-268 CNS amounted to 13.8 µM; in the experiment with NCI-H23 lung it was 5.39 µM; in the experiment on HCC-2998 colon, 3.36 µM; in the experiment on CCRF-CEM leukemia, 7.98 µM.

For `Fc1ccc(-c2nn(-c3ccccc3)cc2-c2nc3ccccc3o2)cc1`, the GI50 in the experiment with SK-MEL-28 melanoma is 13.4 µM; in the experiment with IGROV1 ovarian, 3.94 µM; in the experiment on UACC-62 melanoma it was 5.5 µM; in the experiment on DU-145 prostate, 5.65 µM; with OVCAR-4 ovarian, 9.12 µM; in the experiment with MDA-MB-231 breast it was 8.47 µM. In addition, the GI50 in the experiment on SF-268 CNS is 4.53 µM; in the experiment on NCI-H23 lung, 2.26 µM; in the experiment with HCC-2998 colon it was 7.98 µM; in the experiment with CCRF-CEM leukemia, 3.43 µM. The TGI in the experiment with SK-MEL-28 melanoma was 39.4 µM; with IGROV1 ovarian, 39.3 µM; in the experiment on UACC-62 melanoma it was 19.6 µM; in the experiment with DU-145 prostate, 19.4 µM; in the experiment on OVCAR-4 ovarian it was above 100 µM; in the experiment on MDA-MB-231 breast, 67.3 µM. Besides, the TGI in the experiment on SF-268 CNS was above 100 µM; in the experiment with NCI-H23 lung it was 11.7 µM; in the experiment on HCC-2998 colon it was above 100 µM; with CCRF-CEM leukemia, above 100 µM.

`CCOc1ccc2nc(NC(=O)/C(CC(=O)CC(C3=C(O)c4ccccc4CC3=O)c3ccccc3)=N\O)sc2c1` (stereo not given): the concentration for total growth inhibition (TGI) with SK-MEL-28 melanoma, with IGROV1 ovarian, in the experiment on UACC-62 melanoma, in the experiment on DU-145 prostate, with OVCAR-4 ovarian and in the experiment on MDA-MB-231 breast was above 100 µM throughout. Moreover, the TGI in the experiment with SF-268 CNS, in the experiment with NCI-H23 lung, in the experiment on HCC-2998 colon and in the experiment with CCRF-CEM leukemia was above 100 µM each time.

As to `CC1=C(CCCOC(=O)NCCCl)C2=C(C)C3(CC3)[C@@](C)(O)C(=O)C2=C1`, the GI50 with SK-MEL-28 melanoma was 2.63 µM; in the experiment with IGROV1 ovarian, 1.77 µM; in the experiment on UACC-62 melanoma it was 2.02 µM; with DU-145 prostate, 1.14 µM; with OVCAR-4 ovarian it was 2.7 µM; in the experiment on MDA-MB-231 breast, 2.56 µM. Also, the GI50 in the experiment on SF-268 CNS is 3.07 µM; in the experiment on NCI-H23 lung it was 1.83 µM; in the experiment with HCC-2998 colon, 2.35 µM; with CCRF-CEM leukemia, 9.4 µM. The total growth inhibition concentration (TGI) was 8.03 µM in the experiment on SK-MEL-28 melanoma; 17.6 µM in the experiment on IGROV1 ovarian; 4.96 µM in the experiment on UACC-62 melanoma; above 100 µM with DU-145 prostate; above 100 µM in the experiment on OVCAR-4 ovarian; 8.35 µM with MDA-MB-231 breast. Moreover, the TGI in the experiment with SF-268 CNS was 51.7 µM; with NCI-H23 lung, 9.17 µM; in the experiment on HCC-2998 colon it was 7.24 µM; in the experiment with CCRF-CEM leukemia, above 100 µM.

`COc1ccc(CN2CCCC(C(=O)c3ccc(C(F)(F)F)cc3)C2)c(O)c1` (stereo not given): the GI50 in the experiment with SK-MEL-28 melanoma was 17.1 µM; with IGROV1 ovarian, 52.6 µM; in the experiment on UACC-62 melanoma, 12.4 µM; in the experiment with DU-145 prostate, 53.9 µM; in the experiment with OVCAR-4 ovarian, 29.2 µM; in the experiment with MDA-MB-231 breast, 13.6 µM. Further, the GI50 was 42.1 µM in the experiment with SF-268 CNS, 28.5 µM in the experiment with NCI-H23 lung, 24 µM in the experiment with HCC-2998 colon and 35.2 µM with CCRF-CEM leukemia. The TGI in the experiment with SK-MEL-28 melanoma was 43.9 µM; with IGROV1 ovarian, above 100 µM; in the experiment on UACC-62 melanoma it was 31.3 µM; in the experiment with DU-145 prostate, above 100 µM; in the experiment on OVCAR-4 ovarian it was above 100 µM; with MDA-MB-231 breast, 32 µM. Also, the TGI in the experiment with SF-268 CNS was above 100 µM; in the experiment with NCI-H23 lung, above 100 µM; in the experiment on HCC-2998 colon, 56.3 µM; in the experiment on CCRF-CEM leukemia it was above 100 µM.

As to `CN=C1NC(=O)/C(=C/c2ccc3ncccc3c2)S1`, the GI50 in the experiment on SK-MEL-28 melanoma was 10.5 µM; in the experiment on IGROV1 ovarian, 8.53 µM; in the experiment on UACC-62 melanoma, 8.31 µM; with DU-145 prostate, 5.78 µM; with OVCAR-4 ovarian, 10.2 µM; in the experiment with MDA-MB-231 breast it was 18.5 µM. Moreover, the GI50 in the experiment with SF-268 CNS was 10.7 µM; in the experiment on NCI-H23 lung, 8.38 µM; in the experiment with HCC-2998 colon, above 20 µM; in the experiment on CCRF-CEM leukemia, 7.81 µM. In addition, the concentration for total growth inhibition (TGI) with SK-MEL-28 melanoma, with IGROV1 ovarian, with UACC-62 melanoma, in the experiment with DU-145 prostate, with OVCAR-4 ovarian and in the experiment with MDA-MB-231 breast was above 25 µM each time. Also, the TGI in the experiment on SF-268 CNS, in the experiment on NCI-H23 lung, with HCC-2998 colon and with CCRF-CEM leukemia was above 25 µM each time.

Usually GI50 stands for the concentration giving 50% growth inhibition. Usually TGI stands for the concentration at which net growth stops.
